Data as given in PMC9851200, “Multiparameter phenotypic screening for endogenous TFEB and TFE3 translocation identifies novel chemical series modulating lysosome function” (Autophagy, 2022).
Like-named read-outs stand apart in the source and are kept apart here.

What was measured:
Conditions in all cases: PKIS2 primary screening
endogenous TFEB = assay: TFEB nuclear translocation, immunocytochemistry high-content imaging; assay type: cell-based; further: test concentration or dose not given here
endogenous TFE3 = assay: TFE3 nuclear translocation, immunocytochemistry high-content imaging; assay type: cell-based; further: test concentration or dose not given here
SH-SY5Y cells [1] = tested on: SH-SY5Y cells; further: reference of the scale not given here
SH-SY5Y cells [2] = assay: AK (adenylate kinase) release ToxiLight cytotoxicity assay; further: reference of the scale not given here
SH-SY5Y cells [3] = assay: Nuclear count from microscopy images (cellular growth and toxicity); further: reference of the scale not given here

NCCCC(NC(=O)c1cc(Br)c(-c2ccnc3[nH]ccc23)s1)c1ccccc1.O=C(O)C(F)(F)F.O=C(O)C(F)(F)F (stereo not drawn) [UNC10225265A]
TFEB % (endogenous TFEB): 4.66%
TFE3 % (endogenous TFE3): 12.13%
DQ Intensity (SH-SY5Y cells [1]; DQ Red BSA intensity): 112.08
DQ Spot (SH-SY5Y cells [1]; DQ Red BSA spot count): 100.65
AK (SH-SY5Y cells [2]): 80.18
Nuclear Count (SH-SY5Y cells [3]): 128.28

Cc1c(Cn2c(C)nn3c(=O)cc(N4CCO[C@H](C)C4)nc23)cccc1C(F)(F)F [UNC10225403A]
TFEB % (endogenous TFEB): 3.43%
TFE3 % (endogenous TFE3): 10.58%
DQ Intensity (SH-SY5Y cells [1]): 146.49
DQ Spot (SH-SY5Y cells [1]): 116.83
AK (SH-SY5Y cells [2]): 91.29
Nuclear Count (SH-SY5Y cells [3]): 94.79

CS(=O)(=O)CCNCc1nc(-c2ccc3ncnc(Nc4ccc5c(cnn5Cc5ccccc5)c4)c3c2)cs1.Cl.Cl [UNC10225115A]
TFEB % (endogenous TFEB): 3.62%
TFE3 % (endogenous TFE3): 17.35%
DQ Intensity (SH-SY5Y cells [1]; DQ Red BSA intensity): 104.52
DQ Spot (SH-SY5Y cells [1]; DQ Red BSA spot count): 112.81
AK (SH-SY5Y cells [2]): 99.64
Nuclear Count (SH-SY5Y cells [3]): 105.59

CSc1nn2c(=O)cc(N3CCOCC3)nc2n1Cc1cccc(C(F)(F)F)c1C [UNC10225417A]
TFEB % (endogenous TFEB): 3.46%
TFE3 % (endogenous TFE3): 6.63%
DQ Intensity (SH-SY5Y cells [1]): 90.90
DQ Spot (SH-SY5Y cells [1]): 96.76
AK (SH-SY5Y cells [2]): 90.24
Nuclear Count (SH-SY5Y cells [3]): 112.74

O=C(Nc1n[nH]c2cc(-c3ccccc3F)ccc12)C1CC1 [SB-733371]
TFEB % (endogenous TFEB): 4.96%
TFE3 % (endogenous TFE3): 7.51%
DQ Intensity (SH-SY5Y cells [1]; DQ Red BSA intensity): 129.64
DQ Spot (SH-SY5Y cells [1]; DQ Red BSA spot count): 114.49
AK (SH-SY5Y cells [2]): 88.17
Nuclear Count (SH-SY5Y cells [3]): 133.33

Cc1ccc(NC(=O)Nc2cccc(Cl)c2)cc1-c1ccc(C(=O)Nc2ccncc2)cc1 [UNC10225019A]
TFEB % (endogenous TFEB): 7.29%
TFE3 % (endogenous TFE3): 11.19%
DQ Intensity (SH-SY5Y cells [1]): 128.25
DQ Spot (SH-SY5Y cells [1]): 121.60
AK (SH-SY5Y cells [2]): 95.29
Nuclear Count (SH-SY5Y cells [3]): 106.82

FC(F)(F)c1ccc(-c2nn3ncccc3c2-c2ccnc(Nc3cccc(C(F)(F)F)c3)n2)cc1 [UNC10225138A]
TFEB % (endogenous TFEB): 4.73%
TFE3 % (endogenous TFE3): 11.01%
DQ Intensity (SH-SY5Y cells [1]): 102.80
DQ Spot (SH-SY5Y cells [1]): 109.82
AK (SH-SY5Y cells [2]): 86.01
Nuclear Count (SH-SY5Y cells [3]): 92.79

O=C(Nc1n[nH]c2cc(-c3cccc(F)c3F)ccc12)C1CC1 [SB-733894]
TFEB % (endogenous TFEB): 5.04%
TFE3 % (endogenous TFE3): 15.11%
DQ Intensity (SH-SY5Y cells [1]; DQ Red BSA intensity): 66.38
DQ Spot (SH-SY5Y cells [1]; DQ Red BSA spot count): 85.29
AK (SH-SY5Y cells [2]): 80.72
Nuclear Count (SH-SY5Y cells [3]): 112.33

Cl.NS(=O)(=O)c1cccc(Nc2cc(-c3ccc(F)cc3)n[nH]2)c1 [UNC10112764A]
TFEB % (endogenous TFEB): 1.30%
TFE3 % (endogenous TFE3): 14.81%
DQ Intensity (SH-SY5Y cells [1]; DQ Red BSA intensity): 118.54
DQ Spot (SH-SY5Y cells [1]; DQ Red BSA spot count): 103.52
AK (SH-SY5Y cells [2]): 125.30
Nuclear Count (SH-SY5Y cells [3]): 80.49

CCn1c(-c2nonc2N)nc2c(-c3ccccc3)ncc(OCCCN)c21.O=C(O)C(F)(F)F.O=C(O)C(F)(F)F [UNC10225047A]
TFEB % (endogenous TFEB): 27.76%
TFE3 % (endogenous TFE3): 79.68%
DQ Intensity (SH-SY5Y cells [1]): 51.60
DQ Spot (SH-SY5Y cells [1]): 50.36
AK (SH-SY5Y cells [2]): 103.12
Nuclear Count (SH-SY5Y cells [3]): 137.54

Cl.Oc1cc(-c2nc(-c3ccccc3)[nH]c2-c2ccncc2)ccc1Cl [UNC10225128B]
TFEB % (endogenous TFEB): 6.45%
TFE3 % (endogenous TFE3): 11.76%
DQ Intensity (SH-SY5Y cells [1]; DQ Red BSA intensity): 96.34
DQ Spot (SH-SY5Y cells [1]; DQ Red BSA spot count): 92.51
AK (SH-SY5Y cells [2]): 91.39
Nuclear Count (SH-SY5Y cells [3]): 80.05

CNc1nccc(-c2c(-c3ccc(F)cc3)ncn2CCCN2CCOCC2)n1 [UNC10225031A]
TFEB % (endogenous TFEB): 8.16%
TFE3 % (endogenous TFE3): 11.89%
DQ Intensity (SH-SY5Y cells [1]): 87.71
DQ Spot (SH-SY5Y cells [1]): 104.14
AK (SH-SY5Y cells [2]): 73.64
Nuclear Count (SH-SY5Y cells [3]): 102.35

O=S(=O)(c1ccc(-c2ccnc3[nH]ccc23)cc1)N1CCCC1 [UNC10225462A]
TFEB % (endogenous TFEB): 5.43%
TFE3 % (endogenous TFE3): 10.23%
DQ Intensity (SH-SY5Y cells [1]; DQ Red BSA intensity): 72.77
DQ Spot (SH-SY5Y cells [1]; DQ Red BSA spot count): 93.44
AK (SH-SY5Y cells [2]): 140.08
Nuclear Count (SH-SY5Y cells [3]): 103.12

Fc1ccc(-c2nn3cccc(F)c3c2-c2ccncc2)cc1 [UNC10225116A]
TFEB % (endogenous TFEB): 9.32%
TFE3 % (endogenous TFE3): 11.01%
DQ Intensity (SH-SY5Y cells [1]; DQ Red BSA intensity): 138.45
DQ Spot (SH-SY5Y cells [1]; DQ Red BSA spot count): 107.80
AK (SH-SY5Y cells [2]): 96.78
Nuclear Count (SH-SY5Y cells [3]): 80.47
